Laboratory results as given in PubChem BioAssay (NCI).
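96-well plates; 48 h exposure; 5 concentrations. Endpoints by linear interpolation between flanking doses. Not reached: highest tested concentration assigned. TGI denotes the concentration required for complete inhibition of growth.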

Experiments:
Test in all cases: NCI-60 cell line screen, 48 h
HS 578T breast = test system: HS 578T breast
HOP-62 NSCLC = test system: HOP-62 NSCLC
UACC-257 melanoma = test system: UACC-257 melanoma
HL-60(TB) leukemia = test system: HL-60(TB) leukemia
SF-295 CNS = test system: SF-295 CNS
MALME-3M melanoma = test system: MALME-3M melanoma
BT-549 breast = test system: BT-549 breast
SN12C renal = test system: SN12C renal
OVCAR-5 ovarian = test system: OVCAR-5 ovarian
OVCAR-4 ovarian = test system: OVCAR-4 ovarian
U251 CNS = test system: U251 CNS
NCI-H460 lung = test system: NCI-H460 lung
MDA-MB-231 breast = test system: MDA-MB-231 breast
EKVX NSCLC = test system: EKVX NSCLC
SW-620 colon = test system: SW-620 colon
SK-OV-3 ovarian = test system: SK-OV-3 ovarian
SK-MEL-5 melanoma = test system: SK-MEL-5 melanoma
COLO 205 colon = test system: COLO 205 colon
NCI-H522 lung = test system: NCI-H522 lung
SK-MEL-28 melanoma = test system: SK-MEL-28 melanoma
M14 melanoma = test system: M14 melanoma
HCC-2998 colon = test system: HCC-2998 colon
MCF7 breast = test system: MCF7 breast
SR leukemia = test system: SR leukemia
UO-31 renal = test system: UO-31 renal
SF-539 CNS = test system: SF-539 CNS
T-47D breast = test system: T-47D breast
CCRF-CEM leukemia = test system: CCRF-CEM leukemia
LOX IMVI melanoma = test system: LOX IMVI melanoma
SNB-19 CNS = test system: SNB-19 CNS
HCT-15 colon = test system: HCT-15 colon
RXF 393 renal = test system: RXF 393 renal
CAKI-1 renal = test system: CAKI-1 renal
A549 NSCLC = test system: A549 NSCLC
MDA-N = test system: MDA-N
SK-MEL-2 melanoma = test system: SK-MEL-2 melanoma
SF-268 CNS = test system: SF-268 CNS
K-562 leukemia = test system: K-562 leukemia
IGROV1 ovarian = test system: IGROV1 ovarian
RPMI-8226 leukemia = test system: RPMI-8226 leukemia
OVCAR-8 ovarian = test system: OVCAR-8 ovarian
TK-10 renal = test system: TK-10 renal
A498 renal = test system: A498 renal
786-0 renal = test system: 786-0 renal
NCI-H23 lung = test system: NCI-H23 lung
DU-145 prostate = test system: DU-145 prostate
UACC-62 melanoma = test system: UACC-62 melanoma
HOP-92 NSCLC = test system: HOP-92 NSCLC
MDA-MB-435 = test system: MDA-MB-435
HT29 colon = test system: HT29 colon
PC-3 prostate = test system: PC-3 prostate
NCI-H226 lung = test system: NCI-H226 lung
ACHN renal = test system: ACHN renal
OVCAR-3 ovarian = test system: OVCAR-3 ovarian
NCI/ADR-RES ovarian = test system: NCI/ADR-RES ovarian
SNB-75 CNS = test system: SNB-75 CNS
MOLT-4 leukemia = test system: MOLT-4 leukemia
HCT-116 colon = test system: HCT-116 colon
KM12 colon = test system: KM12 colon

Compound: C[N+](C)(CCNC(=O)c1cccc2cc3ccccc3nc12)Cc1ccc([N+](=O)[O-])cc1
- TGI (HS 578T breast): > 100 µM
- TGI (HOP-62 NSCLC): > 100 µM
- TGI (UACC-257 melanoma): > 100 µM
- TGI (HL-60(TB) leukemia): > 100 µM
- TGI (SF-295 CNS): > 100 µM
- TGI (MALME-3M melanoma): > 100 µM
- TGI (BT-549 breast): > 100 µM
- TGI (SN12C renal): > 100 µM
- TGI (OVCAR-5 ovarian): > 100 µM
- TGI (OVCAR-4 ovarian): > 100 µM
- TGI (U251 CNS): > 100 µM
- TGI (NCI-H460 lung): > 100 µM
- TGI (MDA-MB-231 breast): > 100 µM
- TGI (EKVX NSCLC): > 100 µM
- TGI (SW-620 colon): > 100 µM
- TGI (SK-OV-3 ovarian): > 100 µM
- TGI (SK-MEL-5 melanoma): > 100 µM
- TGI (COLO 205 colon): > 100 µM
- TGI (NCI-H522 lung): > 100 µM
- TGI (SK-MEL-28 melanoma): > 100 µM
- TGI (M14 melanoma): > 100 µM
- TGI (HCC-2998 colon): > 100 µM
- TGI (MCF7 breast): > 100 µM
- TGI (SR leukemia): > 100 µM
- TGI (UO-31 renal): > 100 µM
- TGI (SF-539 CNS): > 100 µM
- TGI (T-47D breast): > 100 µM
- TGI (CCRF-CEM leukemia): > 100 µM
- TGI (LOX IMVI melanoma): > 100 µM
- TGI (SNB-19 CNS): > 100 µM
- TGI (HCT-15 colon): > 100 µM
- TGI (RXF 393 renal): > 100 µM
- TGI (CAKI-1 renal): > 100 µM
- TGI (A549 NSCLC): > 100 µM
- TGI (MDA-N): > 100 µM
- TGI (SK-MEL-2 melanoma): > 100 µM
- TGI (SF-268 CNS): > 100 µM
- TGI (K-562 leukemia): > 100 µM
- TGI (IGROV1 ovarian): > 100 µM
- TGI (RPMI-8226 leukemia): > 100 µM
- TGI (OVCAR-8 ovarian): > 100 µM
- TGI (TK-10 renal): > 100 µM
- TGI (A498 renal): > 100 µM
- TGI (786-0 renal): > 100 µM
- TGI (NCI-H23 lung): > 100 µM
- TGI (DU-145 prostate): > 100 µM
- TGI (UACC-62 melanoma): > 100 µM
- TGI (HOP-92 NSCLC): > 100 µM
- TGI (MDA-MB-435): > 100 µM
- TGI (HT29 colon): > 100 µM
- TGI (PC-3 prostate): > 100 µM
- TGI (NCI-H226 lung): > 100 µM
- TGI (ACHN renal): > 100 µM
- TGI (OVCAR-3 ovarian): > 100 µM
- TGI (NCI/ADR-RES ovarian): > 100 µM
- TGI (SNB-75 CNS): > 100 µM
- TGI (MOLT-4 leukemia): > 100 µM
- TGI (HCT-116 colon): > 100 µM
- TGI (KM12 colon): > 100 µM

Compound: CCOP(=O)(O)C(Nc1ccc(N=Nc2ccccc2)cc1)c1ccc(C(Nc2ccc(N=Nc3ccccc3)cc2)P(=O)(O)OCC)cc1 (stereo not drawn)
- TGI (HS 578T breast): 46.8 µM
- TGI (HOP-62 NSCLC): 36.3 µM
- TGI (UACC-257 melanoma): 70.1 µM
- TGI (HL-60(TB) leukemia): 37 µM
- TGI (SF-295 CNS): 35 µM
- TGI (MALME-3M melanoma): 32.2 µM
- TGI (BT-549 breast): 49.2 µM
- TGI (SN12C renal): 46.3 µM
- TGI (OVCAR-5 ovarian): 53.7 µM
- TGI (OVCAR-4 ovarian): > 100 µM
- TGI (U251 CNS): 33.5 µM
- TGI (NCI-H460 lung): 50.3 µM
- TGI (MDA-MB-231 breast): 90.9 µM
- TGI (EKVX NSCLC): 41 µM
- TGI (SW-620 colon): 38.2 µM
- TGI (SK-OV-3 ovarian): 36.8 µM
- TGI (SK-MEL-5 melanoma): 30.7 µM
- TGI (COLO 205 colon): 28.8 µM
- TGI (NCI-H522 lung): 37.6 µM
- TGI (SK-MEL-28 melanoma): 33.5 µM
- TGI (M14 melanoma): 29.6 µM
- TGI (HCC-2998 colon): 34.3 µM
- TGI (MCF7 breast): > 100 µM
- TGI (SR leukemia): 42.6 µM
- TGI (UO-31 renal): > 100 µM
- TGI (SF-539 CNS): 38.2 µM
- TGI (T-47D breast): 47.1 µM
- TGI (CCRF-CEM leukemia): 41.6 µM
- TGI (LOX IMVI melanoma): 29.6 µM
- TGI (SNB-19 CNS): 41.2 µM
- TGI (HCT-15 colon): 47.9 µM
- TGI (RXF 393 renal): 49.3 µM
- TGI (CAKI-1 renal): > 100 µM
- TGI (A549 NSCLC): 88.7 µM
- TGI (MDA-N): 40.8 µM
- TGI (SK-MEL-2 melanoma): 32.8 µM
- TGI (SF-268 CNS): 42.9 µM
- TGI (K-562 leukemia): 35.7 µM
- TGI (IGROV1 ovarian): 47.8 µM
- TGI (RPMI-8226 leukemia): 53.8 µM
- TGI (OVCAR-8 ovarian): 31.4 µM
- TGI (TK-10 renal): > 100 µM
- TGI (A498 renal): 64.8 µM
- TGI (786-0 renal): 78.5 µM
- TGI (NCI-H23 lung): 64.2 µM
- TGI (DU-145 prostate): > 100 µM
- TGI (UACC-62 melanoma): 35 µM
- TGI (HOP-92 NSCLC): 95.1 µM
- TGI (MDA-MB-435): 32.4 µM
- TGI (HT29 colon): 33.8 µM
- TGI (PC-3 prostate): 35.7 µM
- TGI (NCI-H226 lung): 99.2 µM
- TGI (ACHN renal): > 100 µM
- TGI (OVCAR-3 ovarian): > 100 µM
- TGI (NCI/ADR-RES ovarian): 73 µM
- TGI (SNB-75 CNS): 34.5 µM
- TGI (MOLT-4 leukemia): 37.2 µM
- TGI (HCT-116 colon): 39.5 µM
- TGI (KM12 colon): 31 µM
